We go through 29 compounds from patent publication US9902702B2, “Spirocycloheptanes as inhibitors of rock” (BRISTOL-MYERS SQUIBB COMPANY, priority 2014, dated 2018).

In the assay the target is ROCK2 (Homo sapiens, UniProt O75116). In words: ROCK assay: phosphorylation of FITC peptide substrate, LABCHIP 3000 mobility shift. The note with it: 5 μM ATP, 1.5 μM peptide substrate; read-out: ROCK2 Activity (ROCK IC50 range). The class given is biochemical. As to the method:
The effectiveness of compounds of the present invention as ROCK inhibitors can be determined in a 30 μL assay containing 20 mM HEPES, pH 7.5, 20 mM MgCl2, 0.015% Brij-35, 4 mM DTT, 5 μM ATP and 1.5 μM peptide substrate (FITC-AHA-AKRRRLSSLRA-OH). Compounds were dissolved in DMSO so that the final concentration of DMSO was <2%, and the reaction was initiated with Rho kinase variants. After incubation, the reaction was terminated by the addition of EDTA and the phosphorylated and non-phosphorylated peptides separated using a LABCHIP® 3000 Reader (Caliper Life Sciences). […] Compounds were tested in dose-response format, and the inhibition of kinase activity was calculated at each concentration of compound. The inhibition data were fit using a curve-fitting program to determine the IC50; i.e., the concentration of compound required to inhibit 50% of kinase activity.
Representative Examples were tested in the ROCK assay described above and found having ROCK inhibitory activity.

Sequence of ROCK2 (O75116 whole entry, species assumed): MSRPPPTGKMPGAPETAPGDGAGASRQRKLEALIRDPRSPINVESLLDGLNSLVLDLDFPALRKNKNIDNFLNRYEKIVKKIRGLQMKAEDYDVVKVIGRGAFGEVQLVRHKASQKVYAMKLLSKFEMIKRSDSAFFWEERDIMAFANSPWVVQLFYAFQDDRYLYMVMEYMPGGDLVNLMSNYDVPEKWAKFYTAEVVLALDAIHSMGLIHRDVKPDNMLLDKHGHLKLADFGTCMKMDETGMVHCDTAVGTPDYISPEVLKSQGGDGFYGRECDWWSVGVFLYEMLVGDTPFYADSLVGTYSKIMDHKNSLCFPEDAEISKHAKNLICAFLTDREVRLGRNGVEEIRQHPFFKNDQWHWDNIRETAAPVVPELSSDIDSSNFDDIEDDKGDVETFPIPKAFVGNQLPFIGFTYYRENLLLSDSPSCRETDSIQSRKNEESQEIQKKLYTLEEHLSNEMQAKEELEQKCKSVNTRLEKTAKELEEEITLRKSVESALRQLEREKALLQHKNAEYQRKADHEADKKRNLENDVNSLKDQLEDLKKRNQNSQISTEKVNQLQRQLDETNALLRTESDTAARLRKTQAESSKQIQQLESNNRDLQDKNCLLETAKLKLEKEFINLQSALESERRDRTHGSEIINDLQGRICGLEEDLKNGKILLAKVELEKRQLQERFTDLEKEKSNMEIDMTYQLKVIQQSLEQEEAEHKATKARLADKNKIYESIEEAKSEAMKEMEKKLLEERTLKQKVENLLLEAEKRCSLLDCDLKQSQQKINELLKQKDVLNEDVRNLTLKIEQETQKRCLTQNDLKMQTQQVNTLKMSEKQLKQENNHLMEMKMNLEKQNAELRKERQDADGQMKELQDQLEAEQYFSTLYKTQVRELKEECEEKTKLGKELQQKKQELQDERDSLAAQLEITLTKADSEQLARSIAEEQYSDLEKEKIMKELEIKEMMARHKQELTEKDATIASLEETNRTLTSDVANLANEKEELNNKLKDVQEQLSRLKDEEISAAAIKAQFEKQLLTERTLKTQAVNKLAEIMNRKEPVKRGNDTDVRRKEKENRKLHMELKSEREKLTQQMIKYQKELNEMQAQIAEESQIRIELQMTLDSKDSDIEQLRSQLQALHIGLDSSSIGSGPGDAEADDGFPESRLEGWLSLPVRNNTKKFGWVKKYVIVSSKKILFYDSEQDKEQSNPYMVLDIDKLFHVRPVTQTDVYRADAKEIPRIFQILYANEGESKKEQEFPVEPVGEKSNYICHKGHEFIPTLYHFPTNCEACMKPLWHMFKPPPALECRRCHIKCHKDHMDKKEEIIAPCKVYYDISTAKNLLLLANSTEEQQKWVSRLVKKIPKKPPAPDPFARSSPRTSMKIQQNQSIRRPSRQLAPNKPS

As to `Cc1nc(N2CCCCC2)sc1C(=O)N[C@H]1CC2(C1)C[C@H](c1n[nH]c(=O)c3ccccc31)C2` (stereo partly drawn) [Example 33, 4-Methyl-N-((aR)-6-(4-oxo-3,4-dihydrophthalazin-1-yl)spiro[3.3]heptan-2-yl)-2-(piperidin-1-yl)thiazole-5-carboxamide], the IC50 is 0.2 to 2 nM. Next, `Cc1nc(N2CCOCC2)sc1C(=O)NC1CC2(C1)CC(c1n[nH]c(=O)c3ccccc13)C2` [Example 34, 4-methyl-2-(morpholin-4-yl)-N-[(aR)-6-(4-oxo-3,4-dihydrophthalazin-1-yl)spiro[3.3]heptan-2-yl]-1,3-thiazole-5-carboxamide]: 15.1 to 100 nM; `Cc1nc(N2CCCC2)sc1C(=O)NC1CC2(C1)CC(c1n[nH]c(=O)c3ccccc13)C2` [Example 35, 4-methyl-N-[(aR)-6-(4-oxo-3,4-dihydrophthalazin-1-yl)spiro[3.3]heptan-2-yl]-2-(pyrrolidin-1-yl)-1,3-thiazole-5-carboxamide]: 5.1 to 15 nM. Next, `Cc1nc(N2CCC(F)C2)sc1C(=O)NC1CC2(C1)CC(c1n[nH]c(=O)c3ccccc13)C2` [Example 36, 2-[(3S)-3-fluoropyrrolidin-1-yl]-4-methyl-N-[(aR)-6-(4-oxo-3,4-dihydrophthalazin-1-y)spiro[3.3]heptan-2-yl]-1,3-thiazole-5-carboxamide]: 2.01 to 5 nM; `Cc1nc(N2CCC(F)C2)sc1C(=O)NC1CC2(C1)CC(c1n[nH]c(=O)c3ccccc13)C2` [Example 37, 2-[(3R)-3-fluoropyrrolidin-1-yl]-4-methyl-N-[(aR)-6-(4-oxo-3,4-dihydrophthalazin-1-yl)spiro[3.3]heptan-2-yl]-1,3-thiazole-5-carboxamide]: 5.1 to 15 nM. As for `Cc1nc(N2CCC(C#N)C2)sc1C(=O)NC1CC2(C1)CC(c1n[nH]c(=O)c3ccccc13)C2` [Example 38, 2-[(3S)-3-cyanopyrrolidin-1-yl]-4-methyl-N-[(aR)-6-(4-oxo-3,4-dihydrophthalazin-1-yl)spiro[3.3]heptan-2-yl]-1,3-thiazole-5-carboxamide], the IC50 lay in the range of 5.1 to 15 nM. Next, `Cc1nc(N2CCC(C#N)C2)sc1C(=O)NC1CC2(C1)CC(c1n[nH]c(=O)c3ccccc13)C2` [Example 39, 2-[(3R)-3-cyanopyrrolidin-1-yl]-4-methyl-N-[(aR)-6-(4-oxo-3,4-dihydrophthalazin-1-yl)spiro[3.3]heptan-2-yl]-1,3-thiazole-5-carboxamide]: 5.1 to 15 nM. Next, `Cc1nc(N2CCC3CC32)sc1C(=O)NC1CC2(C1)CC(c1n[nH]c(=O)c3ccccc13)C2` [Example 40, rel-2-[(1S,5R)-2-azabicyclo[3.1.0]hexan-2-yl]-4-methyl-N-[(aR)-6-(4-oxo-3,4-dihydrophthalazin-1-yl)spiro[3.3]heptan-2-yl]-1,3-thiazole-5-carboxamide]: 2.01 to 5 nM. To `Cc1nc(N2CCC(F)(F)C2)sc1C(=O)NC1CC2(C1)CC(c1n[nH]c(=O)c3ccccc13)C2` [Example 41, 2-(3,3-difluoropyrrolidin-1-yl)-4-methyl-N-[(aR)-6-(4-oxo-3,4-dihydrophthalazin-1-yl)spiro[3.3]heptan-2-yl]-1,3-thiazole-5-carboxamide] belongs 2.01 to 5 nM. Take `Cc1nc(NC2CC2)sc1C(=O)NC1CC2(C1)CC(c1n[nH]c(=O)c3ccccc13)C2` [Example 42, 2-(cyclopropylamino)-4-methyl-N-[(aR)-6-(4-oxo-3,4-dihydrophthalazin-1-yl)spiro[3.3]heptan-2-yl]-1,3-thiazole-5-carboxamide]: the IC50 lay in the range of 15.1 to 100 nM. Next, `O=c1[nH]nc([C@H]2CC3(C[C@H](Nc4nnc(-c5ccccc5)s4)C3)C2)c2ccccc12` (stereo partly drawn) [Example 43, 4-((aR)-6-((5-Phenyl-1,3,4-thiadiazol-2-yl)amino)spiro[3.3]heptan-2-yl)phthalazin-1(2H)-one(2H)-one]: 5.1 to 15 nM; `O=c1[nH]nc([C@H]2CC3(C[C@H](Nc4ncc(-c5ccccc5)o4)C3)C2)c2ccccc12` (stereo partly drawn) [Example 44, 4-((aR)-6-((5-phenyloxazol-2-yl)amino)spiro[3.3]heptan-2-yl)phthalazin-1(2H)-one(2H)-one]: 100 to 2100 nM; `O=c1[nH]nc([C@H]2CC3(C[C@H](Nc4nncc5ccccc45)C3)C2)c2ccccc12` (stereo partly drawn) [Example 45, 4-((aR)-6-(Phthalazin-1-ylamino)spiro[3.3]heptan-2-yl)phthalazin-1(2H)-one(2H)-one]: 5.1 to 15 nM. With `O=C(C1CC2(C1)CC(c1n[nH]c(=O)c3ccccc13)C2)N1CCc2ccccc21` (centres unmarked) [Example 46, 4-(6-(Indoline-1-carbonyl)spiro[3.3]heptan-2-yl)phthalazin-1(2H)-one(2H)-one], the IC50 lay in the range of 100 to 2100 nM.

For the compound `O=C(C1CC2(C1)CC(c1n[nH]c(=O)c3ccccc13)C2)N1Cc2ccccc2C1` (centres unmarked) [Example 47, 4-[6-(2,3-dihydro-1H-isoindole-2-carbonyl)spiro[3.3]heptan-2-yl]-1,2-dihydrophthalazin-1-one], the IC50 lay in the range of 100 to 2100 nM. To `Cc1nnc(NC(=O)C2CC3(C2)CC(c2n[nH]c(=O)c4ccccc24)C3)s1` (centres unmarked) [Example 48, N-(5-methyl-1,3,4-thiadiazol-2-yl)-6-(4-oxo-3,4-dihydrophthalazin-1-yl)spiro[3.3]heptane-2-carboxamide] belongs 100 to 2100 nM; to `Cc1cc(NC(=O)C2CC3(C2)CC(c2n[nH]c(=O)c4ccccc24)C3)no1` (centres unmarked) [Example 49, N-(5-methyl-1,2-oxazol-3-yl)-6-(4-oxo-3,4-dihydrophthalazin-1-yl)spiro[3.3]heptane-2-carboxamide], 100 to 2100 nM; to `[H][C@]1(c2n[nH]c(=O)c3ccccc32)C[C@]2(C[C@@H](NC(=O)N3CCc4ccccc43)C2)C1` (stereo partly drawn) [Example 50, N-((aR)-6-(4-Oxo-3,4-dihydrophthalazin-1-yl)spiro[3.3]heptan-2-yl)indoline-1-carboxamide], 5.1 to 15 nM. Next, `O=C(N[C@H]1CC2(C1)C[C@H](c1n[nH]c(=O)c3ccccc31)C2)N1Cc2ccccc2C1` (stereo partly drawn) [Example 51, N-((aR)-6-(4-Oxo-3,4-dihydrophthalazin-1-yl)spiro[3.3]heptan-2-yl)isoindoline-2-carboxamide]: 5.1 to 15 nM; `O=C(CC1CC2(C1)CC(c1n[nH]c(=O)c3ccccc13)C2)N1CCc2ccccc21` (centres unmarked) [Example 52, 4-(6-(2-(Indolin-1-yl)-2-oxoethyl)spiro[3.3]heptan-2-yl)phthalazin-1(2H)-one]: 15.1 to 100 nM; `Cc1sc(N2CC[C@@H](F)C2)nc1C(=O)N[C@H]1CC2(C1)C[C@H](c1n[nH]c(=O)c3ccccc31)C2` (stereo partly drawn) [Example 53, 2-((R)-3-fluoropyrrolidin-1-yl)-5-methyl-N-((aR)-6-(4-oxo-3,4-dihydrophthalazin-1-yl)spiro[3.3]heptan-2-yl)thiazole-4-carboxamide]: 2.01 to 5 nM.

Turning to `Cc1sc(N2CCC(F)(F)C2)nc1C(=O)NC1CC2(C1)CC(c1n[nH]c(=O)c3ccccc13)C2` [Example 54, 2-(3,3-difluoropyrrolidin-1-yl)-5-methyl-N-((aR)-6-(4-oxo-3,4-dihydrophthalazin-1-yl)spiro[3.3]heptan-2-yl)thiazole-4-carboxamide], the IC50 was 0.2 to 2 nM. To `Cc1sc(N2CCC(C#N)C2)nc1C(=O)NC1CC2(C1)CC(c1n[nH]c(=O)c3ccccc13)C2` [Example 55, 2-((S)-3-cyanopyrrolidin-1-yl)-5-methyl-N-((aR)-6-(4-oxo-3,4-dihydrophthalazin-1-yl)spiro[3.3]heptan-2-yl)thiazole-4-carboxamide] belongs 5.1 to 15 nM; to `Cc1sc(N2CCC(C#N)C2)nc1C(=O)NC1CC2(C1)CC(c1n[nH]c(=O)c3ccccc13)C2` [Example 56, 2-((R)-3-cyanopyrrolidin-1-yl)-5-methyl-N-((aR)-6-(4-oxo-3,4-dihydrophthalazin-1-yl)spiro[3.3]heptan-2-yl)thiazole-4-carboxamide], 5.1 to 15 nM. To `Cc1sc(NC2CC(F)(F)C2)nc1C(=O)NC1CC2(C1)CC(c1n[nH]c(=O)c3ccccc13)C2` [Example 57, 2-((3,3-difluorocyclobutyl)amino)-5-methyl-N-((aR)-6-(4-oxo-3,4-dihydrophthalazin-1-yl)spiro[3.3]heptan-2-yl)thiazole-4-carboxamide] belongs 5.1 to 15 nM; to `Cc1sc(N2CCC(F)C2)nc1C(=O)NC1CC2(C1)CC(c1n[nH]c(=O)c3ccccc13)C2` [Example 58, 2-((S)-3-fluoropyrrolidin-1-yl)-5-methyl-N-((aR)-6-(4-oxo-3,4-dihydrophthalazin-1-yl)spiro[3.3]heptan-2-yl)thiazole-4-carboxamide], 2.01 to 5 nM; to `Cc1sc(N2CCCC2C(F)(F)F)nc1C(=O)NC1CC2(C1)CC(c1n[nH]c(=O)c3ccccc13)C2` [Example 59, 5-methyl-N-((aR)-6-(4-oxo-3,4-dihydrophthalazin-1-yl)spiro[3.3]heptan-2-yl)-2-((S)-2-(trifluoromethyl)pyrrolidin-1-yl)thiazole-4-carboxamide], 5.1 to 15 nM. On to `Cc1sc(N2CCCC2C(F)(F)F)nc1C(=O)NC1CC2(C1)CC(c1n[nH]c(=O)c3ccccc13)C2` [Example 60, 5-methyl-N-((aR)-6-(4-oxo-3,4-dihydrophthalazin-1-yl)spiro[3.3]heptan-2-yl)-2-((R)-2-(trifluoromethyl)pyrrolidin-1-yl)thiazole-4-carboxamide], for which the IC50 fell in the range of 15.1 to 100 nM. Next, `COc1ccc2c(c1)c(C(=O)NC1CC3(C1)CC(c1n[nH]c(=O)c4ccccc14)C3)nn2CC(C)(C)O` [Example 61, 1-(2-hydroxy-2-methylpropyl)-5-methoxy-N-((aR)-6-(4-oxo-3,4-dihydrophthalazin-1-yl)spiro[3.3]heptan-2-yl)-1H-indazole-3-carboxamide]: 2.01 to 5 nM.
